From patent US20120288495A1, “THERAPEUTIC COMPOSITIONS AND METHODS” (BIOTHERA, INC., priority 2009, published 2012)

Tests used:
[1] = test system: neutrophils and monocytes; conditions: cited from earlier work
[2] = Physicochemical properties of purified soluble β-glucan
Text: The soluble β-glucan has an average molecular weight between about 120,000 Da and about 205,000 Da and a molecular weight distribution (polydispersity) of not more than 2.5 as determined by HR-GPC with multiple angle light scattering (HR-GPC/MALS) and differential refractive index detection. Powder X-ray diffraction and magic-angle spinning NMR determined that the product consists of polymeric chains associated into triple helices. The soluble β-glucan is typically uncharged and therefore has no pKa.

[3] = test system: HCT-116 colorectal carcinoma; experiment: LIVE/DEAD cell mediated cytotoxicity assay: PBMC killing of KRAS-mutated tumor cells; assay type: cell-based, human
Description: The tumor target line HCT-116 colorectal carcinoma (American Type Culture Collection, Manassas, Va., ATCC No. CCL-247) was maintained in McCoy's 5A media supplemented with 10% fetal calf serum (Hyclone Laboratories, Inc., Logan, Utah).
Cytotoxicity was measured with the LIVE/DEAD Cell Mediated Cytotoxicity Kit (Invitrogen, Carlsbad, Calif.) according to manufacturer's instructions. Briefly, the HCT-116 target cells were stained with 1:80 dilution of DiOC18 in Phosphate Buffered Saline (PBS, Mediatech Inc. Manassas, Va.) and incubated at 37° C. for 30 minutes. The cells were then washed twice in PBS and resuspended at 2×10^6 cells/mL in complete media containing 10% human serum.
DiOC labeled target cells incubated with ERBITUX dilutions for 30 minutes at 37° C. In each well of a 96-well plate, 1.25×10^6 freshly isolated peripheral blood mononuclear cells (PBMC) along with IMPRIME-PGG dilution or 50 ng/ml IL-2 (R&D Systems, Minneapolis, Minn.) in of total volume of 100 μl media incubated at 37° C. for 30 minutes. 5×10^4 targets added to wells in 25 μl of media and assay incubated overnight at 37° C. Following incubation, target cell viability measured by staining with 125 μl of propidium iodide (PI) viability reagent diluted 1:5000 from stock solution provided in the assay kit. Cells incubated for 30 minutes at 37° C. before analysis on LSR II flow cytometer (BD Biosciences, San Jose, Calif.) to determine percentage of DiOC stained targets that intercalate the PI stain, indicating cell death.

[4] = test system: IL-1, TNF, and leukotrienes; conditions: cited from earlier work

## poly-(1-6)-β-D-glucopyranosyl-(1-3)-β-D-glucopyranose [soluble β-glucan]
[1]
  number of neutrophils and monocytes and their direct antitumor activity (phagocytosis and microbial killing): increase the number of neutrophils and monocytes as well as their direct antitumor activity
[2]
  pKa: has no pKa
  solubility in water: soluble in water independent of pH
[3]; FIG. 2, flow cytometry data, in vitro
  ability of human PBMCs to kill KRAS-mutated tumor cells: enhances the ability of human peripheral blood mononuclear cells (PBMCs) to kill KRAS-mutated tumor cells in vitro
[3]; FIG. 3, in vitro, N=1, E:T=25:1
  ability of human PBMCs to kill KRAS-mutated tumor cells: enhances the ability of human peripheral blood mononuclear cells (PBMCs) to kill KRAS-mutated tumor cells in vitro
[3]; FIG. 4, with ERBITUX, N=1, E:T=25:1
  antitumor activity in the presence of an EGF-r antagonist antibody: exhibits greater antitumor activity in the presence of an EGF-r antagonist antibody
[4]
  production of biochemical mediators (IL-1, TNF, leukotrienes): does not stimulate the production of biochemical mediators
